Source: patent publication US8563580B2, “Flavivirus inhibitors and methods for their use” (Georgetown University, priority 2008, dated 2013)

Tested on: WNV protease
Assay: High Throughput Screen (HTS) protease assay
Type: biochemical, West Nile virus (EG101 strain)
Details: 100 nl of 5 mg/ml compound in DMSO per 30.1 μl well; substrate Boc-Gly-Lys-Arg-AMC 50 μM; DMSO controls = 100% activity
Procedure: Procedures for expression and purification of WNV (EG101 strain) were similar to those described elsewhere by Mueller et al., Int. J. Biochem. Cell. Biol., 39: 606-14 (2007). Briefly, E. coli Top10 F′ cells (Invitrogen, Carlsbad, Calif.) were transformed with the protease expression plasmid. Cells were grown at 37° C. until the OD600 was ˜0.5. Cells were then induced with isopropyl-1-thio-β-D-galactopyranoside (American Bioanalytical, Natick, Mass.) (0.5 mM), and incubated for 4 h at 37° C. Cells were harvested by centrifugation (5000×g) for 15 min at 4° C., washed once with a buffer containing 50 mM Tris-HCl, pH 7.5, and 200 mM NaCl, centrifuged at 5000×g for 15 min at 4° C., and stored at -80° C. until used.
Proteases were purified by suspending bacterial pellets in 50 mM Hepes, pH 7.0, 500 mM NaCl, (buffer A) with 0.05 mg/ml lysozyme. Cells were incubated for 30 min on ice after addition of 10% stock solution of Triton X-100 (final concentration of 0.5%). Cells were disrupted by sonication for 2 min and the soluble fraction was collected after centrifugation (15,000×g) for 30 min at 4° C. The soluble fraction was incubated for 1 h at 4° C. with Talon resin (BD Bioscience, San Jose, Calif.) which was pre-equilibrated in buffer A. The affinity resin was centrifuged at (400×g) for 10 min at 4° C., washed three times with buffer A, and packed into a column. Washing of the column was continued with the buffer A containing 10 mM imidazole, followed by elution of the protease with buffer A containing 150 mM imidazole. The protease was concentrated and further purified by Sephadex G-75 gel filtration chromatography. The purified protease fractions were pooled and dialyzed against a buffer containing 50 mM Tris-HCl pH 7.5 and 300 mM NaCl (4×1 L). Aliquots (100 μl) were frozen at −80° C.
The protease assay (100 μl) described by Mueller et al., Int. J. Biochem. Cell. Biol. 39: 606-14 (2007) was adapted for a 384-well plate format (30.1 μl). Microtiter plates were loaded sequentially with 14 μl of the reaction buffer containing 200 mM Tris-HCl, pH 9.5, and 30% glycerol (TG buffer) using an automated Wellmate (Matrix, Hudson, N.H.) and 6 μl of WNV protease (0.05 μM) (as prepared above) in TG buffer containing 15 mM NaCl (3 mM final concentration). Plates were then centrifuged at 1000×g for 3 min at room temperature to mix samples and pool liquids at the bottom of the wells. Inhibitor compounds (100 nl of 5 mg/ml in dimethyl sulfoxide; DMSO) were added to each well in duplicate by a pin-transfer mechanism of a robotic delivery system. The final inhibitor concentrations in the assays varied due to different molecular weights of the compounds from the libraries that were screened. Plates were incubated at room temperature to allow for formation of protease/inhibitor complexes. The fluorogenic substrate, t-butyl-oxycarbonyl(Boc)-Gly-Lys-Arg-7-amino-4-methyl coumarin (AMC) (10 μl in TG buffer; 50 μM final concentration in the reaction mixture), was added using the Wellmate, and the plates were centrifuged for 3 min at 1000×g and incubated at room temperature for 15 min. Fluorescence was measured at excitation and emission wavelengths of 385 nm and 465 nm, respectively, on a Perkin-Elmer (Waltham, Mass.) spectrofluorometer. To validate the assay conditions, aprotinin (bovine pancreatic trypsin inhibitor, BPTI) was used as a positive control. Assay mixtures containing DMSO were used as negative controls. The average of fluorescence values in duplicate wells for a given compound was used to determine the percent activity by taking the values obtained with DMSO controls as 100%. Compounds 1-11, 18-32, and 37-101 above were identified. […] Compounds 12-17 are compounds related to those identified in the HTS screen that also show significant WNV protease inhibition, i.e., >95%.

Row | SMILES | % Inhibition (reduction in protease activity) [%]
1 | COc1ccc(C(NC(=O)c2ccccc2)c2ccc3cccnc3c2O)cc1 (stereo not drawn) [Compound 1] | 86
2 | O=C(NC(c1ccccc1Cl)c1ccc2cccnc2c1O)c1ccccc1 (stereo not drawn) [Compound 2] | 85
3 | COC(=O)c1ccc(C(Nc2ccccn2)c2ccc3ccc(C)nc3c2O)cc1 (stereo not drawn) [Compound 3] | 84.5
4 | Cc1ccc2ccc(C(Nc3ccccn3)c3ccc4c(c3)OCO4)c(O)c2n1 (stereo not drawn) [Compound 4] | 83
5 | C=CCOc1cccc(C(Nc2cccc(C)n2)c2ccc3cccnc3c2O)c1 (stereo not drawn) [Compound 5] | 81
6 | CN(C)c1ccc(C(Nc2nccs2)c2ccc3cccnc3c2O)cc1 (stereo not drawn) [Compound 6] | 76
7 | CCCCC(=O)NC(c1cccs1)c1cc(Cl)c2cccnc2c1O (stereo not drawn) [Compound 7] | 76
8 | Oc1c(C(Nc2ccccn2)c2ccccc2)ccc2cccnc12 (stereo not drawn) [Compound 8] | 75
9 | Oc1c(C(Nc2nccs2)c2ccc(F)cc2)ccc2cccnc12 (stereo not drawn) [Compound 9] | 74
10 | Cc1cc(NC(c2cccc(Br)c2)c2ccc3cccnc3c2O)no1 (stereo not drawn) [Compound 10] | 70
11 | Oc1c(C(c2ccc(Cl)cc2)N2CCOCC2)cc(Cl)c2cccnc12 (stereo not drawn) [Compound 11] | 65
12 | Cc1ccnc(NC(c2ccccc2O)c2ccc3cccnc3c2O)c1 (stereo not drawn) [Compound 12] | >95
13 | Oc1c(C(Nc2nccs2)c2ccccc2)ccc2cccnc12 (stereo not drawn) [Compound 14] | >95
14 | Cc1cccc(NC(c2ccccc2OCc2ccccc2)c2ccc3cccnc3c2O)n1 (stereo not drawn) [Compound 15] | >95
15 | CCN1C(=O)/C(=C/c2ccc(NC(=O)c3ccccc3Br)cc2)SC1=S [Compound 18] | 83.5
16 | CC(/C=C1\SC(=S)N(CC(=O)Nc2ccccn2)C1=O)=C\c1ccccc1 [Compound 19] | 76.5
17 | O=C(CCCN1C(=O)/C(=C/C=C/c2ccccc2)SC1=S)Nc1ccccn1 [Compound 21] | 74
18 | CC(/C=C1\SC(=S)N(CC(=O)Nc2cccnc2)C1=O)=C\c1ccccc1 [Compound 22] | 72.5
19 | CC(/C=C1\SC(=S)N(CCCC(=O)Nc2cccnc2)C1=O)=C\c1ccccc1 [Compound 23] | 72

Row | SMILES | % Inhibition (reduction in protease activity) [%]
20 | CC1=NC(NC(=O)CCN2C(=O)/C(=C/C(C)=C/c3ccccc3)SC2=S)[SH]=C1 (stereo not drawn) [Compound 24] | 70
21 | CC(/C=C1\SC(=S)N(CCC(=O)Nc2ccccc2O)C1=O)=C\c1ccccc1 [Compound 25] | 67
22 | O=C1/C(=C/C2C=CC=[SH]2)SC(=S)N1CC(=O)N(Cc1ccccc1)c1ccccc1 (stereo not drawn) [Compound 26] | 67
23 | O=C(CCCN1C(=O)/C(=C/C=C/c2ccccc2)SC1=S)Nc1cccc(F)c1 [Compound 27] | 66
24 | O=C(CCCN1C(=O)/C(=C/C=C/c2ccccc2)SC1=S)Nc1cccc(O)c1 [Compound 28] | 63
25 | Cc1cccc(N2C(=O)/C(=C/c3ccc(O)c(O)c3)SC2=S)c1C [Compound 29] | 58
26 | O=C1NC(=S)S/C1=C\c1ccc(-c2cccc(C(F)(F)F)c2)o1 [Compound 30] | 53
27 | CC(C)N1C(=O)/C(=C2/C(=O)N(CC(=O)O)c3ccc(Br)cc32)SC1=S [Compound 31] | 53
28 | COC(=O)/C=C1\S/C(=N/c2ccc(Cl)cc2)N(c2ccc(Cl)cc2)C1=O [Compound 32] | 59
29 | Clc1ccc(CN2COc3c(cc(Cl)c4cccnc34)C2)cc1 [Compound 37] | 71
30 | CC(Oc1cc(Cl)ccc1Cl)C(=O)N1CCc2ccccc21 (stereo not drawn) [Compound 38] | 58
31 | COc1ccc(OCC(=O)OCCN2C(=O)c3ccccc3C2=O)cc1 [Compound 39] | 57
32 | O=C(c1conc1-c1ccccc1)n1cccc1 [Compound 40] | 56
33 | Cn1c(=O)n(CCOc2ccc(Cl)cc2)c2ccccc21 [Compound 41] | 56
34 | O=C1c2ccccc2C(O)(Cc2ccccc2)N1c1ccc2c(c1)OCO2 (stereo not drawn) [Compound 42] | 54
35 | O=C1C(c2ccccc2)c2ccccc2N1Cc1ccccc1 (stereo not drawn) [Compound 43] | 54
36 | O=C1Nc2ccccc2/C1=C/c1ccccc1N1CCOCC1 [Compound 44] | 52
37 | Cc1ccc(-c2csc(-n3sc4ccccc4c3=O)n2)cc1 [Compound 45] | 52
38 | CCOC(=O)C1C(=O)N(C(=O)c2ccc(OC)cc2)CC1c1ccccc1 (stereo not drawn) [Compound 46] | 50

Row | SMILES | % Inhibition (reduction in protease activity) [%]
39 | O=C(COc1cccc2ccccc12)N1CCc2ccccc2C1 [Compound 47] | 83
40 | O=c1[nH]c2ccccc2c(O)c1-c1nc2ccccc2s1 [Compound 48] | 67
41 | COC(=O)c1ccc2c(c1)N(Cc1nc(-c3ccccc3C)oc1C)C(=O)C1CCCN21 (stereo not drawn) [Compound 49] | 58
42 | O=C1N=c2ccc(S(=O)(=O)N(CCc3ccccc3)Cc3ccccc3)cc2=NC1=O [Compound 50] | 55
43 | C=CCn1c(Cc2ccccc2)nc2c(cnn2-c2ccccc2)c1=O [Compound 52] | 52
44 | COc1ccc(Cc2c(O)nc(SC)n(-c3ccccc3)c2=O)cc1 [Compound 55] | 51
45 | C=CCn1c(SCc2ccc(C(=O)OC)cc2)nc2ccccc2c1=O [Compound 56] | 51
46 | O=C(CC1Sc2ncnn2C1=O)Nc1ccc(Br)cc1 (stereo not drawn) [Compound 57] | 58
47 | O=C(Nc1ccc(F)cc1F)c1ccc2c(c1)C(=O)N(Cc1ccco1)C2=O [Compound 58] | 55
48 | CCOC(=O)c1ccc(NC(=O)Cn2ncc3c4ccccc4n(Cc4ccccc4)c3c2=O)cc1 [Compound 59] | 53
49 | O=C(Cn1cnc2ccccc2c1=O)Nc1ccc(Oc2ccccc2)cc1 [Compound 60] | 51
50 | CCOc1cc2c(cc1OCC)C1C(C(=O)NCCCN3CCN(C)CC3)c3ccccc3C(=O)N1CC2 (stereo not drawn) [Compound 61] | 51
51 | CC1CCN(S(=O)(=O)c2ccc(NC(=O)/C=C/c3ccco3)cc2)CC1 [Compound 62] | 72
52 | COc1ccc(NC(=O)c2c(N)sc(-c3ccccc3)c2C)cc1 [Compound 63] | 65
53 | CCN(CC)S(=O)(=O)c1ccc2oc(C(=O)Nc3cccc(OC)c3)c(C)c2c1 [Compound 64] | 65
54 | CC(C)(C)C1CCC(C(=O)OCC(=O)Nc2ccc(C(N)=O)cc2)CC1 (stereo not drawn) [Compound 65] | 63
55 | CC(NC(=O)Cc1cccs1)C(c1cccs1)N1CCN(c2ccccc2)CC1 (stereo not drawn) [Compound 66] | 62
56 | COC(=O)c1cc2oc3ccccc3c2n1CC(=O)NCc1ccco1 [Compound 67] | 61
57 | Cc1ccc(NC(=O)C23C(=O)Oc4ccccc4C2C3(C)C(=O)c2ccccc2)cc1 (stereo not drawn) [Compound 68] | 61
